Data from patent US12421254B2, “KRAS modulators and uses thereof” (Quanta Therapeutics, Inc., priority 2023, dated 2025).

Legend:
[1] = test system: phospho-ERK in SW620 (KRAS-G12V) cells; test: pERK In Cell Western (ICW) assay (Method B), SW620; type: cell-based; details: Homo sapiens, SW-620, 3 h, Table 4
In short: (§1)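 3 h cpd, 37 °C, ½-log 9-pt dilution; AGS 5,000 cells/well, GP2D/SW620 10,000 cells/well, plated overnight. PFA fix, Triton perm, anti-pERK o/n 4 °C, IRDye 800 secondary + DRAQ5. pERK/DRAQ5 as % blank; IC50 4-PL.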

[2] = test system: phospho-ERK in GP2D (KRAS-G12D) cells; test: pERK In Cell Western (ICW) assay (Method B), GP2D; type: cell-based
In short: as §1

[3] = biological target: GST-tagged KRAS-G12V (2-169) (Homo sapiens, UniProt P01116, G12V); test: Nucleotide exchange assay (NEA), SOS-mediated, HTRF, KRAS G12V; type: biochemical; details: Table 4; IC50 extracted at 90 min; 80 nM SOS
In short: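 GST-KRAS-G12V (2-169), 0.25 nM, pre-incubated 1 h at RT with compound, then SOS1cat (564-1049) 80 nM and GTP-DY-647P1 150 nM added in HEPES pH 7.3 buffer with MgCl2 and DTT. HTRF via anti-GST Tb cryptate read over 90 min; IC50 from 4-parameter fit at 90 min, blanked to no-SOS reactions.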

[4] = biological target: GST-tagged KRAS-G12D (2-169) (Homo sapiens, UniProt P01116, G12D); test: Nucleotide exchange assay (NEA), SOS-mediated, HTRF, KRAS G12D; type: biochemical; details: Table 4; IC50 extracted at 30 min; 20 nM SOScat; read-out: NEA G12D IC50
In short: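 Compound preincubated 1 h at RT with 0.25 nM GST-KRAS-G12D (2-169) and anti-GST Tb donor, then 20 nM SOS1cat (564-1049) and 150 nM GTP-DY-647P1 added; pH 7.3 HEPES buffer with MgCl2 and DTT. HTRF monitored at RT; % inhibition versus DMSO and no-SOS blank, 4-parameter IC50 taken at 30 min.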

Chain of GST-tagged KRAS-G12D (2-169) (P01116 2-169 isoform P01116-2 G12D): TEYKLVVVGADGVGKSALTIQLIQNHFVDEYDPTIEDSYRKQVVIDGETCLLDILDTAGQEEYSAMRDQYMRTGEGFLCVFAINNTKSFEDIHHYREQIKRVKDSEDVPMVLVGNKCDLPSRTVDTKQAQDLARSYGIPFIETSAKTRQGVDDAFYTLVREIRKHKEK
Chain of GST-tagged KRAS-G12V (2-169) (P01116 2-169 isoform P01116-2 G12V): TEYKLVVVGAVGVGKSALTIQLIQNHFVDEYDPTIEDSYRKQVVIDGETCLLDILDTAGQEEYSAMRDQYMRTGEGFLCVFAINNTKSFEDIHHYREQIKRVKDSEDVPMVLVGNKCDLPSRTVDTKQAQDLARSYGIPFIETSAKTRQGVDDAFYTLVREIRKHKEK

Structure (SMILES)	IC50 [1]	IC50 ([2]; GP2d, 3 h, Table 4)	IC50 [3]	IC50 [4]	IC50 ([2]; Table 4, 3 hours)
N#Cc1c(N)sc2c1C1(CC2)CN(c2nc(OC[C@@]34CCCN3C[C@H](F)C4)nc(N3CCCCC(C#N)C3)n2)C1 (stereo partly drawn) [Compound 74, 2-amino-1′-[4-(3-cyanoazepan-1-yl)-6-[[(2R,8S)-2-fluoro-1,2,3,5,6,7-hexahydropyrrolizin-8-yl]methoxy]-1,3,5-triazin-2-yl]spiro[5,6-dihydrocyclopenta[b]thiophene-4,3′-azetidine]-3-carbonitrile]	100 to 1000 nM	100 to 1000 nM	< 10 nM	10 to 100 nM	
N#Cc1c(N)sc2c1C1(CC2)CN(c2nc(OC[C@@]34CCCN3C[C@H](F)C4)nc(N(CCO)Cc3cccnc3N)n2)C1 [Compound 107, 2-amino-1′-[4-[(2-amino-3-pyridyl)methyl-(2-hydroxyethyl)amino]-6-[[(2R,8S)-2-fluoro-1,2,3,5,6,7-hexahydropyrrolizin-8-yl]methoxy]-1,3,5-triazin-2-yl]spiro[5,6-dihydrocyclopenta[b]thiophene-4,3′-azetidine]-3-carbonitrile]	10 to 100 nM	10 to 100 nM	< 10 nM	< 10 nM	
N#Cc1c(N)sc2c1C1(CC2)CN(c2nc(OC[C@@]34CCCN3C[C@H](F)C4)nc(N(CCO)Cc3cc(F)cnc3N)n2)C1 [Compound 133, 2-amino-1′-[4-[(2-amino-5-fluoro-3-pyridyl)methyl-(2-hydroxyethyl)amino]-6-[[(2R,8S)-2-fluoro-1,2,3,5,6,7-hexahydropyrrolizin-8-yl]methoxy]-1,3,5-triazin-2-yl]spiro[5,6-dihydrocyclopenta[b]thiophene-4,3′-azetidine]-3-carbonitrile]	10 to 100 nM	100 to 1000 nM	< 10 nM	< 10 nM	
CCN(c1nc(OC[C@@H]2C[C@@H](F)CN2)nc(N2CC3(C2)SCc2sc(N)c(C#N)c23)n1)[C@H](C)c1cccnc1N [Compound 209, 2-amino-1′-[4-[[(1R)-1-(2-amino-3-pyridyl)ethyl]-ethyl-amino]-6-[[(2S,4R)-4-fluoropyrrolidin-2-yl]methoxy]-1,3,5-triazin-2-yl]spiro[6H-thieno[3,4-b]thiophene-4,3′-azetidine]-3-carbonitrile]	10 to 100 nM	< 10 nM	< 10 nM	< 10 nM	
CCN(c1nc(OCCN2CCCCC2)nc(N2CC3(C2)SCc2sc(N)c(C#N)c23)n1)[C@H](C)c1cccnc1N [Compound 178, 2-amino-1′-[4-[[(1R)-1-(2-amino-3-pyridyl)ethyl]-ethyl-amino]-6-[2-(1-piperidyl)ethoxy]-1,3,5-triazin-2-yl]spiro[6H-thieno[3,4-b]thiophene-4,3′-azetidine]-3-carbonitrile]	10 to 100 nM	100 to 1000 nM	< 10 nM	10 to 100 nM	
CC(CO)N(c1nc(OC[C@@]23CCCN2C[C@H](F)C3)nc(N2CC3(C2)SCc2sc(N)c(C#N)c23)n1)C1(C#N)CC1 (stereo partly drawn) [Compound 262, 2-amino-1′-[4-[(1-cyanocyclopropyl)-(2-hydroxy-1-methyl-ethyl)amino]-6-[[(2R,8S)-2-fluoro-1,2,3,5,6,7-hexahydropyrrolizin-8-yl]methoxy]-1,3,5-triazin-2-yl]spiro[6H-thieno[3,4-b]thiophene-4,3′-azetidine]-3-carbonitrile]	10 to 100 nM	10 to 100 nM	< 10 nM	< 10 nM	
CCN(c1nc(OC[C@@H]2CCCN2C)nc(N2CC3(C2)SCc2sc(N)c(C#N)c23)n1)[C@H](C)c1cccnc1N [Compound 207, 2-amino-1′-[4-[[(1R)-1-(2-amino-3-pyridyl)ethyl]-ethyl-amino]-6-[[(2S)-1-methylpyrrolidin-2-yl]methoxy]-1,3,5-triazin-2-yl]spiro[6H-thieno[3,4-b]thiophene-4,3′-azetidine]-3-carbonitrile]	10 to 100 nM	10 to 100 nM	< 10 nM	< 10 nM	
N#Cc1c(N)sc2c1C1(CC2)CN(c2nc(OC[C@@]34CCCN3C[C@H](F)C4)nc(N3CCCCC3C#N)n2)C1 (stereo partly drawn) [Compound 44, 2-amino-1′-[4-(2-cyano-1-piperidyl)-6-[[(2R,8S)-2-fluoro-1,2,3,5,6,7-hexahydropyrrolizin-8-yl]methoxy]-1,3,5-triazin-2-yl]spiro[5,6-dihydrocyclopenta[b]thiophene-4,3′-azetidine]-3-carbonitrile]	1000 to 20000 nM	100 to 1000 nM	10 to 100 nM	10 to 100 nM	
CC(c1cccnc1N)N(C)c1nc(OCCc2nccn2C)nc(N2CC3(CCc4sc(N)c(C#N)c43)C2)n1 (stereo not shown) [Compound 117, 2-amino-1′-[4-[1-(2-amino-3-pyridyl)ethyl-methyl-amino]-6-[2-(1-methylimidazol-2-yl)ethoxy]-1,3,5-triazin-2-yl]spiro[5,6-dihydrocyclopenta[b]thiophene-4,3′-azetidine]-3-carbonitrile]	100 to 1000 nM	100 to 1000 nM	10 to 100 nM	100 to 1000 nM	
CCN(c1nc(OC[C@@]23CCCN2C[C@H](F)C3)nc(N2CC3(C2)SCc2sc(N)c(C#N)c23)n1)C(C)c1nccnc1N (single isomer, unassigned) [Compound 168A, 2-amino-1′-[4-[[(1*)-1-(3-aminopyrazin-2-yl)ethyl]-ethyl-amino]-6-[[(2R,8S)-2-fluoro-1,2,3,5,6,7-hexahydropyrrolizin-8-yl]methoxy]-1,3,5-triazin-2-yl]spiro[6H-thieno[3,4-b]thiophene-4,3′-azetidine]-3-carbonitrile]	< 10 nM		< 10 nM	< 10 nM	< 10 nM
C=C1CN2CCCC2(COc2nc(N3CC4(CCc5sc(N)c(C#N)c54)C3)nc(N3CCC[C@@](C)(O)C3)n2)C1 (stereo partly drawn) [Compound 55, 2-amino-1′-[4-[(3R)-3-hydroxy-3-methyl-1-piperidyl]-6-[(6-methylene-2,3,5,7-tetrahydro-1H-pyrrolizin-8-yl)methoxy]-1,3,5-triazin-2-yl]spiro[5,6-dihydrocyclopenta[b]thiophene-4,3′-azetidine]-3-carbonitrile]	100 to 1000 nM	10 to 100 nM	< 10 nM	< 10 nM	
CCN(c1nc(OCC2(CN3C4CCC3COC4)CC2)nc(N2CC3(C2)SCc2sc(N)c(C#N)c23)n1)[C@H](C)c1cccnc1N [Compound 203, 2-amino-1′-[4-[[(1R)-1-(2-amino-3-pyridyl)ethyl]-ethyl-amino]-6-[[1-(3-oxa-8-azabicyclo[3.2.1]octan-8-ylmethyl)cyclopropyl]methoxy]-1,3,5-triazin-2-yl]spiro[6H-thieno[3,4-b]thiophene-4,3′-azetidine]-3-carbonitrile]	10 to 100 nM	10 to 100 nM	< 10 nM	< 10 nM	
CC(c1cn(C)nc1N)N(C)c1nc(OC[C@@]23CCCN2C[C@H](F)C3)nc(N2CC3(CCc4sc(N)c(C#N)c43)C2)n1 (stereo partly drawn) [Compound 157, amino-1′-[4-[1-(3-amino-1-methyl-pyrazol-4-yl)ethyl-methyl-amino]-6-[[(2R,8S)-2-fluoro-1,2,3,5,6,7-hexahydropyrrolizin-8-yl]methoxy]-1,3,5-triazin-2-yl]spiro[5,6-dihydrocyclopenta[b]thiophene-4,3′-azetidine]-3-carbonitrile]	1000 to 20000 nM	1000 to 20000 nM	10 to 100 nM	100 to 1000 nM	
CCN(c1nc(OC[C@@]23CCCN2C[C@H](F)C3)nc(N2CC3(C2)c2c(sc(N)c2C#N)CN3C)n1)[C@H](C)c1cccnc1N [Compound 226, 2-amino-1′-[4-[[(1R)-1-(2-amino-3-pyridyl)ethyl]-ethyl-amino]-6-[[(2R,8S)-2-fluoro-1,2,3,5,6,7-hexahydropyrrolizin-8-yl]methoxy]-1,3,5-triazin-2-yl]-5-methyl-spiro[6H-thieno[2,3-c]pyrrole-4,3′-azetidine]-3-carbonitrile]	10 to 100 nM	10 to 100 nM	< 10 nM	< 10 nM	
CN(Cc1nsnc1N)c1nc(OC[C@@]23CCCN2C[C@H](F)C3)nc(N2CC3(CCc4sc(N)c(C#N)c43)C2)n1 [Compound 166, 2-amino-1′-[4-[(4-amino-1,2,5-thiadiazol-3-yl)methyl-methyl-amino]-6-[[(2R,8S)-2-fluoro-1,2,3,5,6,7-hexahydropyrrolizin-8-yl]methoxy]-1,3,5-triazin-2-yl]spiro[5,6-dihydrocyclopenta[b]thiophene-4,3′-azetidine]-3-carbonitrile]	10 to 100 nM	100 to 1000 nM	< 10 nM	10 to 100 nM	
N#Cc1c(N)sc2c1C1(CC2)CN(c2nc(OC[C@@]34CCCN3C[C@H](F)C4)nc(N3CCCCC3C(N)=O)n2)C1 (stereo partly drawn) [Compound 40, 1-[4-(2-amino-3-cyano-spiro[5,6-dihydrocyclopenta[b]thiophene-4,3′-azetidine]-1′-yl)-6-[[(2R,8S)-2-fluoro-1,2,3,5,6,7-hexahydropyrrolizin-8-yl]methoxy]-1,3,5-triazin-2-yl]piperidine-2-carboxamide]	≥ 20000 nM	1000 to 20000 nM	1000 to 20000 nM	100 to 1000 nM	
